The test relates to HIV-IIIb. As to the kind of experiment: Test A: Antiviral Assays in MT4 Cells. The settings on record: MT-4 cells infected with HIV-IIIb (0.004 m.o.i.), 5 days of incubation, CellTiter-Glo chemiluminescence readout, read-out: EC50. Type of test: cell-based. The procedure: Test A: Antiviral Assays in MT4 Cells
For the antiviral assay utilizing MT-4 cells, 0.4 μL of […] test concentration of 3-fold serially diluted compound in DMSO was added to 40 μL of cell growth medium (RPMI 1640, 10% FBS, 1% penicillin/Streptomycin, 1% L-Glutamine, 1% HEPES) in each well of 384-well assay plates (10 concentrations) in quadruplicate.
1 mL aliquots of 2×10e6 MT-4 cells are pre-infected for 1 and 3 hrs respectively, @37° C. with 25 μL (MT4) or of either cell growth medium (mock-infected) or a fresh 1:250 dilution of an HIV-IIIb concentrated ABI stock (0.004 m.o.i. for MT4 cells). Infected and uninfected cells are diluted in cell growth medium and 35 uL of 2000 (for MT4) cells is added to each well of the assay plates.
Assay plates were then incubated in a 37° C. incubator. After 5 days of incubation, 25 μl of 2× concentrated CellTiter-Glo™ Reagent (catalog #G7573, Promega Biosciences, Inc., Madison, Wis.) was added to each well of the assay plate. Cell lysis was carried out by incubating at room temperature for 2-3 min and then chemiluminescence was read using the Envision reader (PerkinElmer).
A general note: In ATP-based viability assays light output follows the ATP content of the culture.

Setting [1] is: Human immunodeficiency virus 1, IIIB, MT4, 120 h.

One may read the EC50 as the midpoint of the concentration-response curve.

Each structure is given as a SMILES string. Where two headings read alike, the source gives them in different places.

`Cc1cc2c(F)cccc2c(-c2ccc3c4c(ccnc24)CCO3)c1C(OC(C)(C)C)C(=O)O` (stereo not drawn) [Compound 44, 2-tert-Butoxy-2-(1-(2,3-dihydropyrano[4,3,2-de]quinolin-7-yl)-5-fluoro-3-methylnaphthalen-2-yl)acetic acid]: the EC50 under setting [1] was 120 nM.

Regarding `Cc1ccc2cc(C)c(C(OC(C)(C)C)C(=O)O)c(-c3ccc(Cl)cc3)c2c1` (stereo not drawn) [Compound 78, 2-tert-Butoxy-2-(1-(4-chlorophenyl)-3,7-dimethylnaphthalen-2-yl)acetic acid], the EC50 under setting [1] came out at 300 nM. As for `Cc1cc2cc(-c3ccccn3)ccc2c(-c2ccc(Cl)cc2)c1[C@H](OC(C)(C)C)C(=O)O` [Compound 63, (S)-2-tert-Butoxy-2-(1-(4-chlorophenyl)-3-methyl-6-(pyridin-2-yl)naphthalen-2-yl)acetic acid], the EC50 under setting [1] turned out to be 99 nM. Still for that read-out and setting: for `Cc1c(C(OC(C)(C)C)C(=O)O)c(-c2ccc(Cl)cc2)c2ccccc2c1C#N` (stereo not drawn) [Compound 147, 2-tert-Butoxy-2-(1-(4-chlorophenyl)-4-cyano-3-methylnaphthalen-2-yl)acetic acid] the value was 1100 nM.

Consider `CCc1cc2ccccc2c(-c2ccc(Cl)cc2)c1[C@H](OC(C)(C)C)C(=O)O` [Compound 29B, (S)-2-tert-butoxy-2-(1-(4-chlorophenyl)-3-ethylnaphthalen-2-yl)acetic acid], for which, under setting [1], the EC50 is 500 nM. Take `Cc1cc2ccc(C#CC(C)(C)O)cc2c(-c2ccc(Cl)cc2)c1C(OC(C)(C)C)C(=O)O` (stereo not drawn) [Compound 69, 2-tert-butoxy-2-(1-(4-chlorophenyl)-7-(3-hydroxy-3-methylbut-1-ynyl)-3-methylnaphthalen-2-yl)acetic acid]: under setting [1], the EC50 was 380 nM.

`Cc1cc2ccccc2c(-c2cccc3cccnc23)c1[C@H](OC(C)(C)C)C(=O)O` [Compound 4L, (S)-2-tert-butoxy-2-((S)-3-methyl-1-(quinolin-8-yl)naphthalen-2-yl)acetic acid]: the EC50 under setting [1] came out at 22000 nM.

Take `Cc1c(C(OC(C)(C)C)C(=O)O)c(-c2ccc(Cl)cc2)c2ccccc2c1C` (stereo not drawn) [Compound 127, 2-tert-Butoxy-2-(1-(4-chlorophenyl)-3,4-dimethylnaphthalen-2-yl)acetic acid]: under setting [1], the EC50 was 87 nM.

Consider `Cc1cc2ccc(-c3ccc(Cl)cc3)cc2c(-c2ccc(Cl)cc2)c1C(OC(C)(C)C)C(=O)O` (stereo not drawn) [Compound 70, 2-(1,7-Bis(4-chlorophenyl)-3-methylnaphthalen-2-yl)-2-tert-butoxyacetic acid], for which the concentration for a half-maximal effect (EC50) under setting [1] is 8800 nM. Turning to `Cc1cc2ccccc2c(C2=CCCCC2)c1[C@H](OC(C)(C)C)C(=O)O` [Compound 8, (S)-2-tert-Butoxy-2-(1-cyclohexenyl-3-methylnaphthalen-2-yl)acetic acid], under setting [1], the EC50 came out at 25 nM. The same measure, in the same setting: for `Cc1cc2ccc(Cl)cc2c(-c2ccc3c4c(ccnc24)CCO3)c1[C@H](OC(C)(C)C)C(=O)O` (atropisomer, axis not shown) [Compound 180] the value was 29000 nM. The same measure, in the same setting: with `Cc1cc2ccccc2c(-c2ccc3c4c2N(C)CCC4CCO3)c1[C@H](OC(C)(C)C)C(=O)O` (stereo partly drawn) [Compound 22, (2S)-2-tert-Butoxy-2-(3-methyl-1-((7R)-6-methyl-2,3,3a,4,5,6-hexahydropyrano[4,3,2-de]quinolin-7-yl)naphthalen-2-yl)acetic acid] the figure was 540 nM; with `Cc1cc2ccc(C#CC3(O)CCCC3)cc2c(-c2ccc(Cl)cc2)c1C(OC(C)(C)C)C(=O)O` (stereo not drawn) [Compound 73, 2-tert-butoxy-2-(1-(4-chlorophenyl)-7-((1-hydroxycyclopentyl)ethynyl)-3-methylnaphthalen-2-yl)acetic acid], 130 nM. As for `Cc1cc2ccc(C#CC(C)(C)N)cc2c(-c2ccc3c4c(ccnc24)CCO3)c1C(OC(C)(C)C)C(=O)O` (stereo not drawn) [Compound 176], the EC50 under setting [1] is 12000 nM. With `Cc1c(C(OC(C)(C)C)C(=O)O)c(-c2ccc(Cl)cc2)c2ccccc2c1CCCN(C)C` (stereo not drawn) [Compound 132, 2-tert-Butoxy-2-(1-(4-chlorophenyl)-4-(3-(dimethylamino)propyl)-3-methylnaphthalen-2-yl)acetic acid], the EC50 under setting [1] came out at 118 nM. Same read-out and setting: for `Cc1cc2cc(F)c(F)cc2c(-c2ccc3c4c(ccnc24)CCO3)c1[C@H](OC(C)(C)C)C(=O)O` (atropisomer, axis not shown) [Compound 174] the value was 3200 nM. Regarding `Cc1cc2ccccc2c(-c2cc(F)cc3cccnc23)c1[C@H](OC(C)(C)C)C(=O)O` (atropisomer, axis not shown) [Compound 9, (S)-2-tert-Butoxy-2-(1-((R)-6-fluoroquinolin-8-yl)-3-methylnaphthalen-2-yl)acetic acid], the EC50 is 1300 nM. For the compound `Cc1cc2ccc(F)cc2c(-c2ccc3c4c(ccnc24)CCO3)c1[C@H](OC(C)(C)C)C(=O)O` (atropisomer, axis not shown) [Compound 179], the EC50 under setting [1] was 18700 nM.

As to `Cc1cc2c(-c3cncnc3)cccc2c(-c2ccc(Cl)cc2)c1C(OC(C)(C)C)C(=O)O` (stereo not drawn) [Compound 41, 2-tert-Butoxy-2-(1-(4-chlorophenyl)-3-methyl-5-(pyrimidin-5-yl)naphthalen-2-yl)acetic acid], the EC50 under setting [1] was determined as 400 nM. `Cc1cc2ccccc2c(C2=CCC(C)CC2)c1[C@H](OC(C)(C)C)C(=O)O` (stereo partly drawn) [Compound 13, (2S)-2-tert-Butoxy-2-(3-methyl-1-(4-methylcyclohex-1-enyl)naphthalen-2-yl)acetic acid]: the EC50 under setting [1] is 10 nM. For `COC(=O)NC(C)(C)C#Cc1ccc2cc(C)c(C(OC(C)(C)C)C(=O)O)c(-c3ccc(Cl)cc3)c2c1` (stereo not drawn) [Compound 97, 2-tert-Butoxy-2-(1-(4-chlorophenyl)-7-(3-(methoxycarbonylamino)-3-methylbut-1-ynyl)-3-methylnaphthalen-2-yl)acetic acid], under setting [1], the EC50 came to 300 nM. `CCc1ccc2cc(C)c(C(OC(C)(C)C)C(=O)O)c(-c3ccc(Cl)cc3)c2c1` (stereo not drawn) [Compound 93, 2-tert-Butoxy-2-(1-(4-chlorophenyl)-7-ethyl-3-methylnaphthalen-2-yl)acetic acid]: under setting [1], the EC50 worked out at 86 nM. `Cc1cc2cc(-c3cn[nH]c3)ccc2c(-c2ccc(Cl)cc2)c1[C@H](OC(C)(C)C)C(=O)O` [Compound 57, (S)-2-tert-Butoxy-2-(1-(4-chlorophenyl)-3-methyl-6-(1H-pyrazol-4-yl)naphthalen-2-yl)acetic acid]: under setting [1], the EC50 was 82 nM.

For the compound `Cc1cc2c(F)c(Cl)ccc2c(-c2ccc3c4c(ccnc24)CCO3)c1[C@H](OC(C)(C)C)C(=O)O` (atropisomer, axis not shown) [Compound 152], the EC50 turned out to be 5800 nM. As to `Cc1cc2ccc(C#CC(C)(C)N(C)C)cc2c(-c2ccc(Cl)cc2)c1C(OC(C)(C)C)C(=O)O` (stereo not drawn) [Compound 95, 2-tert-Butoxy-2-(1-(4-chlorophenyl)-7-(3-(dimethylamino)-3-methylbut-1-ynyl)-3-methylnaphthalen-2-yl)acetic acid], the EC50 under setting [1] came to 380 nM. For `C=Cc1c(C)c(C(OC(C)(C)C)C(=O)O)c(-c2ccc(Cl)cc2)c2ccccc12` (stereo not drawn) [Compound 128, 2-tert-Butoxy-2-(1-(4-chlorophenyl)-3-methyl-4-vinylnaphthalen-2-yl)acetic acid], the EC50 under setting [1] came out at 5300 nM. With `Cc1c(C(OC(C)(C)C)C(=O)O)c(-c2ccc(Cl)cc2)c2ccccc2c1-c1cccnc1` (stereo not drawn) [Compound 138, 2-tert-butoxy-2-(1-(4-chlorophenyl)-3-methyl-4-(pyridin-3-yl)naphthalen-2-yl)acetic acid], the EC50 under setting [1] was determined as 40 nM.

Take `Cc1cc2ccccc2c(-c2ccc(C(F)(F)F)c3cccnc23)c1[C@H](OC(C)(C)C)C(=O)O` [Compound 7D, (S)-2-tert-butoxy-2-((R)-3-methyl-1-(5-(trifluoromethyl)quinolin-8-yl)naphthalen-2-yl)acetic acid]: the EC50 worked out at 1700 nM. Turning to `Cc1cc2ccc(Br)cc2c(-c2ccc(Cl)cc2)c1C(OC(C)(C)C)C(=O)O` (stereo not drawn) [Compound 71, 2-(7-Bromo-1-(4-chlorophenyl)-3-methylnaphthalen-2-yl)-2-tert-butoxyacetic acid], under setting [1], the EC50 came out at 35000 nM. On to `Cc1cc2c(C)c(C)ccc2c(-c2ccc3c4c(ccnc24)CCO3)c1[C@H](OC(C)(C)C)C(=O)O` [Compound 117, (S)-2-tert-Butoxy-2-((R)-1-(2,3-dihydropyrano[4,3,2-de]quinolin-7-yl)-3,5,6-trimethylnaphthalen-2-yl)acetic acid], for which the concentration giving a half-maximal response (EC50) amounted to 11 nM. On to `Cc1cc2cc(Cl)ccc2c(-c2ccc3c4c(ccnc24)CCO3)c1[C@@H](OC(C)(C)C)C(=O)O` (atropisomer, axis not shown) [Compound 177], for which the EC50 under setting [1] was 37000 nM.

Turning to `Cc1cc2ccc(C#CC3(O)CCCCC3)cc2c(-c2ccc(Cl)cc2)c1C(OC(C)(C)C)C(=O)O` (stereo not drawn) [Compound 83, 2-tert-Butoxy-2-(1-(4-chlorophenyl)-7-((1-hydroxycyclohexyl)ethynyl)-3-methylnaphthalen-2-yl)acetic acid], under setting [1], the EC50 turned out to be 78 nM. The same measure, in the same setting: for `Cc1cc2c(Cl)c(C)ccc2c(-c2ccc3c4c(ccnc24)CCO3)c1[C@H](OC(C)(C)C)C(=O)O` (atropisomer, axis not shown) [Compound 151] the value was 850 nM.

These data come from patent US9102614B2, “Naphth-2-ylacetic acid derivatives to treat AIDS” (Gilead Sciences, Inc., priority 2010, dated 2015).
